Reference: the supplement of paper PMC10307832

What was measured:
Test in all cases: relative viability (nuclei count vs DMSO), 5 days (fraction); higher = more cells survive
A549 = test system: A549
Method in brief: (§1)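 Relative viability equals treated-well nuclei counts divided by vehicle-well nuclei counts. Counts came from 4× images of lung cancer cell lines grown in 1536-well plates for 5 days after pin-tool dosing on the day after seeding. Dosing used one drug alone or a fixed anchor-drug dose plus five library-drug doses (not always all listed) in √10 steps, and values are medians of duplicate plates.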

Calu-6 = test system: Calu-6
Method in brief: as §1

EBC-1 = test system: EBC-1
Method in brief: as §1

EKVX = test system: EKVX
Method in brief: as §1

HCC-15 = test system: HCC-15
Method in brief: as §1

HCC-44 = test system: HCC-44
Method in brief: as §1

IA-LM = test system: IA-LM
Method in brief: as §1

NCI-H1299 = test system: NCI-H1299
Method in brief: as §1

NCI-H1395 = test system: NCI-H1395
Method in brief: as §1

NCI-H1703 = test system: NCI-H1703
Method in brief: as §1

NCI-H1755 = test system: NCI-H1755
Method in brief: as §1

UMC-11 = test system: UMC-11
Method in brief: as §1

`CC(=O)O[C@@]12CO[C@@H]1C[C@H](O)[C@@]1(C)C(=O)[C@H](O)C3=C(C)[C@@H](OC(=O)[C@H](O)[C@@H](NC(=O)OC(C)(C)C)c4ccccc4)C[C@@](O)([C@@H](OC(=O)c4ccccc4)[C@H]21)C3(C)C` [Docetaxel] + CS(=O)(=O)CCNCc1ccc(-c2ccc3ncnc(Nc4ccc(OCc5cccc(F)c5)c(Cl)c4)c3c2)o1 [Lapatinib] (partner 2 µM) gave a relative viability (A549; first compound 0.0002 µM) of 0.972, a relative viability (A549; first compound 0.002 µM) of 0.0898 and a relative viability (A549; first compound 0.006325 µM) of 0.0769. The relative viability (A549; first compound 0.02 µM) was 0.0547, the relative viability (Calu-6; first compound 0.0002 µM) was 0.982 and the relative viability (Calu-6; first compound 0.000632 µM) was 0.879. It also gave a relative viability (Calu-6; first compound 0.002 µM) of 0.286, a relative viability (Calu-6; first compound 0.006325 µM) of 0.125 and a relative viability (Calu-6; first compound 0.02 µM) of 0.112. It also gave a relative viability (EBC-1; first compound 0.0002 µM) of 0.201, a relative viability (EBC-1; first compound 0.000632 µM) of 0.227 and a relative viability (EBC-1; first compound 0.002 µM) of 0.228. The relative viability (EBC-1; first compound 0.006325 µM) was 0.197, the relative viability (EBC-1; first compound 0.02 µM) was 0.195 and the relative viability (EKVX; first compound 0.0002 µM) was 0.212. For the same molecule, the relative viability (EKVX; first compound 0.000632 µM) was 0.173, the relative viability (EKVX; first compound 0.002 µM) was 0.14 and the relative viability (EKVX; first compound 0.006325 µM) was 0.141. It also gave a relative viability (EKVX; first compound 0.02 µM) of 0.119, a relative viability (HCC-15; first compound 0.0002 µM) of 0.681 and a relative viability (HCC-15; first compound 0.000632 µM) of 0.372. The relative viability (HCC-15; first compound 0.002 µM) was 0.208, the relative viability (HCC-15; first compound 0.006325 µM) was 0.195 and the relative viability (HCC-15; first compound 0.02 µM) was 0.137. For the same molecule, the relative viability (HCC-44; first compound 0.0002 µM) was 0.936, the relative viability (HCC-44; first compound 0.000632 µM) was 0.961 and the relative viability (HCC-44; first compound 0.002 µM) was 0.621. The relative viability (HCC-44; first compound 0.006325 µM) was 0.22, the relative viability (HCC-44; first compound 0.02 µM) was 0.115 and the relative viability (IA-LM; first compound 0.0002 µM) was 0.46. It also gave a relative viability (IA-LM; first compound 0.000632 µM) of 0.153, a relative viability (IA-LM; first compound 0.002 µM) of 0.0797 and a relative viability (IA-LM; first compound 0.006325 µM) of 0.069. The relative viability (IA-LM; first compound 0.02 µM) was 0.068, the relative viability (NCI-H1299; first compound 0.0002 µM) was 0.935 and the relative viability (NCI-H1299; first compound 0.000632 µM) was 0.968. For the same molecule, the relative viability (NCI-H1299; first compound 0.002 µM) was 0.704, the relative viability (NCI-H1299; first compound 0.006325 µM) was 0.467 and the relative viability (NCI-H1299; first compound 0.02 µM) was 0.298. For the same molecule, the relative viability (NCI-H1395; first compound 0.0002 µM) was 0.992, the relative viability (NCI-H1395; first compound 0.000632 µM) was 0.954 and the relative viability (NCI-H1395; first compound 0.002 µM) was 0.775. It also gave a relative viability (NCI-H1395; first compound 0.006325 µM) of 0.368, a relative viability (NCI-H1395; first compound 0.02 µM) of 0.268 and a relative viability (NCI-H1703; first compound 0.0002 µM) of 1.1. For the same molecule, the relative viability (NCI-H1703; first compound 0.000632 µM) was 0.664, the relative viability (NCI-H1703; first compound 0.002 µM) was 0.219 and the relative viability (NCI-H1703; first compound 0.006325 µM) was 0.157. It also gave a relative viability (NCI-H1703; first compound 0.02 µM) of 0.148, a relative viability (NCI-H1755; first compound 0.0002 µM) of 0.99 and a relative viability (NCI-H1755; first compound 0.000632 µM) of 0.756. For the same molecule, the relative viability (NCI-H1755; first compound 0.002 µM) was 0.495, the relative viability (NCI-H1755; first compound 0.006325 µM) was 0.448 and the relative viability (NCI-H1755; first compound 0.02 µM) was 0.258. The relative viability (UMC-11; first compound 0.0002 µM) was 0.8, the relative viability (UMC-11; first compound 0.000632 µM) was 0.831 and the relative viability (UMC-11; first compound 0.002 µM) was 0.249. The relative viability (UMC-11; first compound 0.006325 µM) was 0.26 and the relative viability (UMC-11; first compound 0.02 µM) was 0.148.
Molecule `Cc1sc2c(c1C)C(c1ccc(Cl)cc1)=N[C@@H](CC(=O)OC(C)(C)C)c1nnc(C)n1-2` [JQ1] + CC1(C)CCC(c2ccc(Cl)cc2)=C(CN2CCN(c3ccc(C(=O)NS(=O)(=O)c4ccc(N[C@H](CCN5CCOCC5)CSc5ccccc5)c(S(=O)(=O)C(F)(F)F)c4)cc3)CC2)C1 [Navitoclax] (partner 0.5 µM) has a relative viability (A549; first compound 0.04 µM) of 1.27, a relative viability (A549; first compound 0.1265 µM) of 1.06 and a relative viability (A549; first compound 0.4 µM) of 1.13. It also gave a relative viability (A549; first compound 1.265 µM) of 0.702, a relative viability (A549; first compound 4 µM) of 0.313 and a relative viability (Calu-6; first compound 0.04 µM) of 0.821. For the same molecule, the relative viability (Calu-6; first compound 0.1265 µM) was 0.757, the relative viability (Calu-6; first compound 0.4 µM) was 0.792 and the relative viability (Calu-6; first compound 1.265 µM) was 0.481. The relative viability (Calu-6; first compound 4 µM) was 0.309, the relative viability (EBC-1; first compound 0.04 µM) was 0.389 and the relative viability (EBC-1; first compound 0.1265 µM) was 0.165. For the same molecule, the relative viability (EBC-1; first compound 0.4 µM) was 0.174, the relative viability (EBC-1; first compound 1.265 µM) was 0.136 and the relative viability (EBC-1; first compound 4 µM) was 0.125. The relative viability (EKVX; first compound 0.04 µM) was 0.945, the relative viability (EKVX; first compound 0.1265 µM) was 0.827 and the relative viability (EKVX; first compound 0.4 µM) was 0.96. For the same molecule, the relative viability (EKVX; first compound 1.265 µM) was 0.802, the relative viability (EKVX; first compound 4 µM) was 0.685 and the relative viability (HCC-15; first compound 0.04 µM) was 0.692. It also gave a relative viability (HCC-15; first compound 0.4 µM) of 0.532, a relative viability (HCC-15; first compound 1.265 µM) of 0.331 and a relative viability (HCC-15; first compound 4 µM) of 0.299. It also gave a relative viability (HCC-44; first compound 0.04 µM) of 1.02, a relative viability (HCC-44; first compound 0.1265 µM) of 0.802 and a relative viability (HCC-44; first compound 0.4 µM) of 0.705. It also gave a relative viability (HCC-44; first compound 1.265 µM) of 0.265, a relative viability (HCC-44; first compound 4 µM) of 0.389 and a relative viability (IA-LM; first compound 0.04 µM) of 0.745. For the same molecule, the relative viability (IA-LM; first compound 0.1265 µM) was 0.294, the relative viability (IA-LM; first compound 0.4 µM) was 0.126 and the relative viability (IA-LM; first compound 1.265 µM) was 0.0769. The relative viability (IA-LM; first compound 4 µM) was 0.0558, the relative viability (NCI-H1299; first compound 0.04 µM) was 1.02 and the relative viability (NCI-H1299; first compound 0.1265 µM) was 0.92. The relative viability (NCI-H1299; first compound 0.4 µM) was 0.933, the relative viability (NCI-H1299; first compound 1.265 µM) was 0.591 and the relative viability (NCI-H1299; first compound 4 µM) was 0.419. The relative viability (NCI-H1395; first compound 0.04 µM) was 1.13, the relative viability (NCI-H1395; first compound 0.1265 µM) was 1.03 and the relative viability (NCI-H1395; first compound 0.4 µM) was 0.951. For the same molecule, the relative viability (NCI-H1395; first compound 1.265 µM) was 0.633, the relative viability (NCI-H1395; first compound 4 µM) was 0.516 and the relative viability (NCI-H1703; first compound 0.04 µM) was 1.27. It also gave a relative viability (NCI-H1703; first compound 0.1265 µM) of 0.637, a relative viability (NCI-H1703; first compound 0.4 µM) of 0.928 and a relative viability (NCI-H1703; first compound 1.265 µM) of 0.405. It also gave a relative viability (NCI-H1703; first compound 4 µM) of 0.309, a relative viability (NCI-H1755; first compound 0.04 µM) of 1.01 and a relative viability (NCI-H1755; first compound 0.1265 µM) of 0.991. It also gave a relative viability (NCI-H1755; first compound 0.4 µM) of 0.922, a relative viability (NCI-H1755; first compound 1.265 µM) of 0.59 and a relative viability (NCI-H1755; first compound 4 µM) of 0.455. It also gave a relative viability (UMC-11; first compound 0.04 µM) of 0.266, a relative viability (UMC-11; first compound 0.1265 µM) of 0.292 and a relative viability (UMC-11; first compound 0.4 µM) of 0.205. The relative viability (UMC-11; first compound 1.265 µM) was 0.134 and the relative viability (UMC-11; first compound 4 µM) was 0.142.
